Assay results reported in PubChem BioAssay (NCI).
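Dose response: 5 concentrations. Exposure: 48 h. Format: 96-well plates. Endpoint: linear interpolation; highest concentration if not reached. GI50 is the concentration that inhibits growth by half. The concentration for full growth arrest is given as TGI.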

Key:
Assay in all cases: growth of human tumour cells (NCI), 48 h
786-0 renal = tested on: 786-0 renal
A498 renal = tested on: A498 renal
A549 NSCLC = tested on: A549 NSCLC
ACHN renal = tested on: ACHN renal
BT-549 breast = tested on: BT-549 breast
CAKI-1 renal = tested on: CAKI-1 renal
CCRF-CEM leukemia = tested on: CCRF-CEM leukemia
COLO 205 colon = tested on: COLO 205 colon
DU-145 prostate = tested on: DU-145 prostate
EKVX NSCLC = tested on: EKVX NSCLC
HCC-2998 colon = tested on: HCC-2998 colon
HCT-116 colon = tested on: HCT-116 colon
HCT-15 colon = tested on: HCT-15 colon
HL-60(TB) leukemia = tested on: HL-60(TB) leukemia
HOP-62 NSCLC = tested on: HOP-62 NSCLC
HOP-92 NSCLC = tested on: HOP-92 NSCLC
HS 578T breast = tested on: HS 578T breast
HT29 colon = tested on: HT29 colon
IGROV1 ovarian = tested on: IGROV1 ovarian
K-562 leukemia = tested on: K-562 leukemia
KM12 colon = tested on: KM12 colon
LOX IMVI melanoma = tested on: LOX IMVI melanoma
M14 melanoma = tested on: M14 melanoma
MALME-3M melanoma = tested on: MALME-3M melanoma
MCF7 breast = tested on: MCF7 breast
MDA-MB-231 breast = tested on: MDA-MB-231 breast
MDA-MB-435 = tested on: MDA-MB-435
MDA-MB-468 breast = tested on: MDA-MB-468 breast
MOLT-4 leukemia = tested on: MOLT-4 leukemia
NCI-H226 lung = tested on: NCI-H226 lung
NCI-H23 lung = tested on: NCI-H23 lung
NCI-H460 lung = tested on: NCI-H460 lung
NCI-H522 lung = tested on: NCI-H522 lung
OVCAR-3 ovarian = tested on: OVCAR-3 ovarian
OVCAR-4 ovarian = tested on: OVCAR-4 ovarian
OVCAR-5 ovarian = tested on: OVCAR-5 ovarian
OVCAR-8 ovarian = tested on: OVCAR-8 ovarian
PC-3 prostate = tested on: PC-3 prostate
RPMI-8226 leukemia = tested on: RPMI-8226 leukemia
RXF 393 renal = tested on: RXF 393 renal
SF-268 CNS = tested on: SF-268 CNS
SF-295 CNS = tested on: SF-295 CNS
SF-539 CNS = tested on: SF-539 CNS
SK-MEL-2 melanoma = tested on: SK-MEL-2 melanoma
SK-MEL-28 melanoma = tested on: SK-MEL-28 melanoma
SK-MEL-5 melanoma = tested on: SK-MEL-5 melanoma
SK-OV-3 ovarian = tested on: SK-OV-3 ovarian
SN12C renal = tested on: SN12C renal
SNB-19 CNS = tested on: SNB-19 CNS
SNB-75 CNS = tested on: SNB-75 CNS
SR leukemia = tested on: SR leukemia
SW-620 colon = tested on: SW-620 colon
T-47D breast = tested on: T-47D breast
TK-10 renal = tested on: TK-10 renal
U251 CNS = tested on: U251 CNS
UACC-257 melanoma = tested on: UACC-257 melanoma
UACC-62 melanoma = tested on: UACC-62 melanoma
UO-31 renal = tested on: UO-31 renal

Work on `O=C(O)c1ccc(-c2ccc(/C=N/NC(=O)c3[nH]c4ccc(Br)cc4c3-c3ccccc3)s2)cc1` yielded a GI50 (786-0 renal) of 3.13 µM, a TGI (786-0 renal) of 11 µM and a GI50 (A498 renal) of 20.7 µM. The TGI (A498 renal) was 52 µM, the GI50 (A549 NSCLC) was 13.5 µM and the TGI (A549 NSCLC) was 44.6 µM. For the same molecule, the GI50 (ACHN renal) was 11.4 µM, the TGI (ACHN renal) was 55.7 µM and the GI50 (BT-549 breast) was 1.95 µM. It also gave a TGI (BT-549 breast) of 5.83 µM, a GI50 (CAKI-1 renal) of 21.1 µM and a TGI (CAKI-1 renal) of 64.1 µM. The GI50 (CCRF-CEM leukemia) was 4.44 µM, the TGI (CCRF-CEM leukemia) was 26.9 µM and the GI50 (COLO 205 colon) was 16.1 µM. For the same molecule, the TGI (COLO 205 colon) was 33.9 µM, the GI50 (DU-145 prostate) was 24.9 µM and the TGI (DU-145 prostate) was over 100 µM. For the same molecule, the GI50 (EKVX NSCLC) was 14.4 µM, the TGI (EKVX NSCLC) was 39.1 µM and the GI50 (HCC-2998 colon) was 11.8 µM. It also gave a TGI (HCC-2998 colon) of 27.3 µM, a GI50 (HCT-116 colon) of 3.7 µM and a TGI (HCT-116 colon) of 12.6 µM. For the same molecule, the GI50 (HCT-15 colon) was 5.27 µM, the TGI (HCT-15 colon) was 20 µM and the GI50 (HL-60(TB) leukemia) was 4.31 µM. The TGI (HL-60(TB) leukemia) was 25 µM, the GI50 (HOP-62 NSCLC) was 12.3 µM and the TGI (HOP-62 NSCLC) was 30.4 µM. It also gave a GI50 (HOP-92 NSCLC) of 4.41 µM, a TGI (HOP-92 NSCLC) of 22 µM and a GI50 (HS 578T breast) of 6.67 µM. The TGI (HS 578T breast) was 38.9 µM, the GI50 (HT29 colon) was 12.7 µM and the TGI (HT29 colon) was 30.4 µM. The GI50 (IGROV1 ovarian) was 7.85 µM, the TGI (IGROV1 ovarian) was 23.1 µM and the GI50 (K-562 leukemia) was 6.15 µM. It also gave a TGI (K-562 leukemia) of 37.1 µM, a GI50 (KM12 colon) of 15.3 µM and a TGI (KM12 colon) of 39.7 µM. The GI50 (LOX IMVI melanoma) was 25.7 µM, the TGI (LOX IMVI melanoma) was over 100 µM and the GI50 (M14 melanoma) was 6.32 µM. It also gave a TGI (M14 melanoma) of 30.3 µM, a GI50 (MALME-3M melanoma) of 16.3 µM and a TGI (MALME-3M melanoma) of 38.2 µM. It also gave a GI50 (MCF7 breast) of 18.1 µM, a TGI (MCF7 breast) of 65.1 µM and a GI50 (MDA-MB-231 breast) of 20.6 µM. It also gave a TGI (MDA-MB-231 breast) of 47.2 µM, a GI50 (MDA-MB-435) of 6.81 µM and a TGI (MDA-MB-435) of 28.2 µM. The GI50 (MDA-MB-468 breast) was 19.1 µM, the TGI (MDA-MB-468 breast) was 59.7 µM and the GI50 (MOLT-4 leukemia) was 6.42 µM. It also gave a TGI (MOLT-4 leukemia) of 34.2 µM, a GI50 (NCI-H226 lung) of 21 µM and a TGI (NCI-H226 lung) of 75.5 µM. The GI50 (NCI-H23 lung) was 21.7 µM, the TGI (NCI-H23 lung) was 54.5 µM and the GI50 (NCI-H460 lung) was 12.3 µM. The TGI (NCI-H460 lung) was 31.5 µM, the GI50 (NCI-H522 lung) was 15.9 µM and the TGI (NCI-H522 lung) was 33.4 µM. For the same molecule, the GI50 (OVCAR-3 ovarian) was 13.7 µM, the TGI (OVCAR-3 ovarian) was 35.8 µM and the GI50 (OVCAR-4 ovarian) was 7.68 µM. For the same molecule, the TGI (OVCAR-4 ovarian) was 44.9 µM, the GI50 (OVCAR-5 ovarian) was 17.1 µM and the TGI (OVCAR-5 ovarian) was 31.5 µM. The GI50 (OVCAR-8 ovarian) was 15.9 µM, the TGI (OVCAR-8 ovarian) was 66.9 µM and the GI50 (PC-3 prostate) was 4.79 µM. It also gave a TGI (PC-3 prostate) of 37 µM, a GI50 (RPMI-8226 leukemia) of 6.05 µM and a TGI (RPMI-8226 leukemia) of 51.3 µM. It also gave a GI50 (RXF 393 renal) of 13.9 µM, a TGI (RXF 393 renal) of 57.7 µM and a GI50 (SF-268 CNS) of 13.5 µM. The TGI (SF-268 CNS) was 46 µM, the GI50 (SF-295 CNS) was 7.34 µM and the TGI (SF-295 CNS) was 26.2 µM. For the same molecule, the GI50 (SF-539 CNS) was 6.79 µM, the TGI (SF-539 CNS) was 22.2 µM and the GI50 (SK-MEL-2 melanoma) was 15.6 µM. The TGI (SK-MEL-2 melanoma) was 35.7 µM, the GI50 (SK-MEL-28 melanoma) was 7.17 µM and the TGI (SK-MEL-28 melanoma) was 21.6 µM. For the same molecule, the GI50 (SK-MEL-5 melanoma) was 12 µM, the TGI (SK-MEL-5 melanoma) was 27 µM and the GI50 (SK-OV-3 ovarian) was 20 µM. It also gave a TGI (SK-OV-3 ovarian) of 41.2 µM, a GI50 (SN12C renal) of 9.73 µM and a TGI (SN12C renal) of 29.7 µM. For the same molecule, the GI50 (SNB-19 CNS) was 6.76 µM, the TGI (SNB-19 CNS) was 20.5 µM and the GI50 (SNB-75 CNS) was 11.2 µM. The TGI (SNB-75 CNS) was 44.8 µM, the GI50 (SR leukemia) was 13.7 µM and the TGI (SR leukemia) was 58 µM. The GI50 (SW-620 colon) was 13.8 µM, the TGI (SW-620 colon) was 34.1 µM and the GI50 (T-47D breast) was 13.9 µM. The TGI (T-47D breast) was 59.5 µM, the GI50 (TK-10 renal) was 26.8 µM and the TGI (TK-10 renal) was over 100 µM. The GI50 (U251 CNS) was 5.98 µM, the TGI (U251 CNS) was 22 µM and the GI50 (UACC-257 melanoma) was 18.7 µM. The TGI (UACC-257 melanoma) was 50.2 µM, the GI50 (UACC-62 melanoma) was 11.7 µM and the TGI (UACC-62 melanoma) was 24.6 µM. The GI50 (UO-31 renal) was 10.4 µM and the TGI (UO-31 renal) was 33.9 µM.
